Measured values as given in patent US6887873B2, “Triazine derivatives and their application as antitelomerase agents” (Aventis Pharma S.A., priority 2001, dated 2005).

Experiments:
[1] = tested on: human telomerease (HL60 cell extract); test: Antitelomerease activity: extension of oligonucleotide TS followed by PCR amplification, with HL60 extract; format: biochemical; details: read-out: TRAP IC50
Summary of the method: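 HL60 CHAPS-lysate extract extends TS primer (15 min, 30 °C) with compound at 10, 1, 0.1 and 0.01 µM, followed by 30-cycle PCR with TS and CXext. Products resolved on 12% acrylamide and quantified; % inhibition versus enzyme control and blank, IC50 read from semilog plot.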

A549 cells = test: Cytotoxic activity on human tumour line A549, neutral red, 96 hours; format: cell-based; details: Homo sapiens, A549, A549; read-out: Cytotox. A549 IC50
Method: The cytotoxic biological activity on human tumour lines is determined according to the following experimental protocol:
The human cell lines A549 are obtained from ATCC (American Type Culture Collection, Rockville, USA). The A549 cells are cultured in a layer in a culture flask in RPMI 1640 medium containing L-glutamine at 2 mM, penicillin 200 U/ml, streptomycin 200 μg/ml and supplemented with 10% heat-inactivated foetal calf serum. The KB cells are cultured in a layer in a culture flask in Dulbelco's medium containing L-glutamine at 2 mM, penicillin 200 U/ml, streptomycin 200 μg/ml and supplemented with 10% heat-inactivated foetal calf serum.
The cells at the exponential growth phase are trypsinized, washed in 1×PBS and are inoculated in 96-well microplates (Costar) in an amount of 4×10^4 cells/ml for A549 and of 1.5×10^4 cells/ml (0.2 ml/well) and then incubated for 96 hours in the presence of variable concentrations of product to be studied (10, 1, 0.1 and 0.01 μM, each point in quadruplicate). 16 hours before the end of the incubation, 0.02% final of neutral red is added to each well. At the end of the incubation, the cells are washed with 1×PBS and lysed with 1% sodium lauryl sulphate. The cellular incorporation of the dye, which reflects cellular growth, is evaluated by spectro-photometry at a wavelength of 540 nm for each sample with the aid of a Dynatech MR5000 reading apparatus.
For each compound concentration tested, the results are expressed as percentage of inhibition of cellular growth and calculated from the untreated control and the culture medium free of cells (blank) according to the following formula: (compound value−blank value/cell control value−blank value)×100.
The concentration of compound inducing a 50% inhibition of growth (IC50) is determined with the aid of a semilogarithmic graphical representation of the inhibition values obtained as a function of each of the compound concentrations tested.
A compound is considered to be active as cytotoxic agent if the concentration inhibiting the growth of the tumour cells tested by 50% is in particular less than 10 μM.

[2] = tested on: G-quadruplex of oligonucleotide GGGTTAGGGTTAGGGTTAGGG (3.5 repeats of the human telomereic motif); test: G-quadruplex stabilizing activity, fluorescence Tm (FAM+DABCYL oligonucleotide); format: binding
Summary of the method: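 FAM/DABCYL-labelled telomeric oligonucleotide (0.2 μM strand) in 10 mM sodium cacodylate pH 7.6 with 0.1 M LiCl (or NaCl) was annealed, then incubated ≥1 h at 20 °C with compound at 1 μM final. Samples were heated 20→80 °C, with excitation at 470 nm and emission at 515/588 nm. Tm is the 515 nm emission midpoint.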

SMILES | IC50 [1] | IC50 (A549 cells) | G4 delta Tm [2]
COc1ccc(CNc2nc(Nc3ccc4nc(C)cc(N)c4c3)nc(Nc3ccc4nc(C)cc(N)c4c3)n2)cc1 [Example 83] | 1200 nM | 14000 nM | 
Cc1cc(N)c2cc(Nc3nc(NCc4ccc(N(C)C)cc4)nc(Nc4ccc5nc(C)cc(N)c5c4)n3)ccc2n1 [Example 85] | 3900 nM | 16000 nM | 
Cc1cc(N)c2cc(Nc3nc(Nc4ccc5nc(C)cc(N)c5c4)nc(N4CCN(c5ccc6ccccc6n5)CC4)n3)ccc2n1 [Example 71] | 350 nM | 12400 nM | 
Cc1cc(N)c2cc(Nc3nc(Nc4ccc5nc(C)cc(N)c5c4)nc(Sc4ccccc4)n3)ccc2n1 [Example 117] |  | 19500 nM | 
Cc1cc(N)c2cc(Nc3nc(Nc4ccc5nc(C)cc(N)c5c4)nc(Nc4ccccn4)n3)ccc2n1 [Example 89] | 1200 nM | 20000 nM | 
Cc1cc(N)c2cc(Nc3nc(Nc4ccc5nc(C)cc(N)c5c4)nc(Oc4ccncc4)n3)ccc2n1 [Example 32, 2,4-bis(4-amino-2-methylquinolin-6-yl)amino-6-(pyridin-4-yl)oxy-[1,3,5]triazine] | 300 nM |  | 10.0 °C
Cc1cc(N)c2cc(Nc3nc(NCCN4CCCC4)nc(Nc4ccc5nc(C)cc(N)c5c4)n3)ccc2n1 [Example 46] | 1000 nM |  | 18.5 °C
Cc1cc(N(C)C)c2cc(Nc3nc(Nc4ccc5nc(C)cc(N(C)C)c5c4)nc(NC(C)CO)n3)ccc2n1 (centres unmarked) [Example 175] | 3000 nM |  | 3 °C
Cc1cc(N)c2cc(Nc3nc(Nc4ccc5nc(C)cc(N)c5c4)nc(OCc4ccccn4)n3)ccc2n1 [Example 114] | 1260 nM |  | 13.5 °C
CCN(CC)CCOc1nc(Nc2ccc3nc(C)cc(N)c3c2)nc(Nc2ccc3nc(C)cc(N)c3c2)n1 [Example 106] | 280 nM |  | 14.5 °C
COc1ccc(COc2nc(Nc3ccc4nc(C)cc(N)c4c3)nc(Nc3ccc4nc(C)cc(N)c4c3)n2)cc1 [Example 113] | 530 nM |  | 6 °C
Cc1cc(N)c2cc(Nc3nc(Nc4ccc5nc(C)cc(N)c5c4)nc(N(C)CC4CCN(C)CC4)n3)ccc2n1 [Example 48] | 100 nM |  | 14 °C
Cc1cc(N(C)C)c2cc(Nc3nc(NCC(O)CO)nc(Nc4ccc5nc(C)cc(N(C)C)c5c4)n3)ccc2n1 (centres unmarked) [Example 176] | 3000 nM |  | 6 °C
Cc1cc(N(C)C)c2cc(Nc3nc(Nc4ccc5nc(C)cc(N(C)C)c5c4)nc(N4CCN(CCO)CC4)n3)ccc2n1 [Example 163] | 1200 nM |  | 13 °C
COCCOc1nc(Nc2ccc3nc(C)cc(N)c3c2)nc(Nc2ccc3nc(C)cc(N)c3c2)n1 [Example 112] | 320 nM |  | 15 °C
COC(=O)CSc1nc(Nc2ccc3nc(C)cc(N)c3c2)nc(Nc2ccc3nc(C)cc(N)c3c2)n1 [Example 125] | 360 nM |  | 14.5 °C
CCN(CCN(C)C)c1nc(Nc2ccc3nc(C)cc(N)c3c2)nc(Nc2ccc3nc(C)cc(N)c3c2)n1 [Example 53] | 200 nM |  | 15.5 °C
Cc1cc(N)c2cc(Nc3nc(NCC4CCCN4)nc(Nc4ccc5nc(C)cc(N)c5c4)n3)ccc2n1 (centres unmarked) [Example 16] | 80 nM |  | 7.3 °C
Cc1cc(N)c2cc(Nc3nc(Nc4ccc5nc(C)cc(N)c5c4)nc(N4CCC(O)C4)n3)ccc2n1 (centres unmarked) [Example 153] | 410 nM |  | 10 °C
Cc1cc(N)c2cc(Nc3nc(NCc4ccccc4)nc(Nc4ccc5nc(C)cc(N)c5c4)n3)ccc2n1 [Example 50] | 220 nM |  | 7 °C
Cc1cc(N)c2cc(Nc3nc(Nc4ccc5nc(C)cc(N)c5c4)nc(N4CCN(CCN(C)C)CC4)n3)ccc2n1 [Example 88] | 110 nM |  | 6 °C
Cc1cc(N)c2cc(Nc3nc(NCCN(CCN(C)C)Cc4ccccc4)nc(Nc4ccc5nc(C)cc(N)c5c4)n3)ccc2n1 [Example 37] | 230 nM |  | 17.5 °C
Cc1cc(N(C)C)c2cc(Nc3nc(Nc4ccc5nc(C)cc(N(C)C)c5c4)nc(-c4ccccc4)n3)ccc2n1 [Example 134, 2,4-bis(4-dimethylamino-2-methylquinolin-6-yl)amino-6-phenyl-[1,3,5]triazine] |  | 880 nM | 
COCC1CCCN1c1nc(Nc2ccc3nc(C)cc(N(C)C)c3c2)nc(Nc2ccc3nc(C)cc(N(C)C)c3c2)n1 (centres unmarked) [Example 168] | 1100 nM |  | 16.5 °C
CCN(CC)CCNc1nc(Nc2ccc3nc(C)cc(N)c3c2)nc(Nc2ccc3nc(C)cc(N)c3c2)n1 [Example 36] | 240 nM |  | 17.5 °C
Cc1cc(N)c2cc(Nc3nc(Nc4ccc5nc(C)cc(N)c5c4)nc(NC(CO)CO)n3)ccc2n1 [Example 173] | 620 nM |  | 11.5 °C
